Reference: US20140335050A1, “METHODS, COMPOSITIONS, AND KITS FOR THE TREATMENT OF CANCER” (The General Hospital Corporation, priority 2011, published 2014)

Columns and labels:
Type in all cases: cell-based, human
[1] = system: MU89 melanoma cells; experiment: Tumor cell/T cell co-culture IL-2 ELISA (Melan-A/MART-1 specific TCR Jurkat line J-TCR-M1 as responder); details: for Fold increase (IL-2 relative to untreated controls), hits from pilot screen: about 10 μM, 72 hours treatment, then 24 hours co-culture; for Outcome in the primary co-culture IL-2 screen (hit or not): ICCB Known Bioactives Library, 10 μM
Source text: The assay relies on the use of an antigen-specific responder T cell line. […] The chosen TCR reacts specifically to a Melan-A/MART-1 decapeptide (26[…]35) presented by HLA-A2, with appropriate triggering of T cell activation. We then used a lentiviral vector system for transduction of this specific TCR into the J.RT3-T3.5 T cell line, a Jurkat cell derivative which fails to express endogenous surface TCR through a mutation in its beta chain.
We evaluated several candidate melanoma cell lines for the ability to stimulate the J-TCR-M1 cell line. Levels of Melan-A/MART-1 (determined by intracellular staining and flow cytometry) and corresponding levels of induced IL-2 (determined by coculture with J-TCR-M1 and IL-2 ELISA) were tested for different melanoma cell lines.
The 480 compounds were tested in six parallel 96 well plates. The first two columns (16 wells) of each plate were used for standards (8 wells), untreated controls (4 wells), and positive controls (4 wells). The other ten columns (80 wells) were used for testing compounds in separate wells. A100 μl aliquot containing 5×10^4 MU89 cells was added to wells that contained 0.1 μl of each test drug diluted in 50 μl of RPMI media. The plates were incubated with drug for 72 hours at 37° C. in a humidified incubator with 5% CO2. After 72 hours, each well received 2.5×10^4J-TCR-M1 cells in 50 μl medium, and then incubated a further 24 hours. At the conclusion of the 24 hour co-culture period, each plate was centrifuged to pellet the cells and 100 μl supernatant fluid was collected from each well and plated in a parallel 96 well flat bottom well for IL-2 ELISA assay.
Melanoma cells were treated with hits from the primary screen for three days prior to counting and plating for the coculture assay (cells were washed and resuspended in fresh medium that no longer contained the treatment agents during the co-culture). A100 μl volume of 5×10^5 cells/ml tumor cells were mixed with 50 μl of […] T cells in a 96-well V-bottom plate and incubated overnight (16-24 hours). Plates were centrifuged to pellet the cells and 100 μl of supernatant fluid was removed from each well for cytokine assay. To assess antigen-specific T cell responses, a final concentration of 3.33 μg/ml Melan-A/MART-1 peptide (26[…]35 (A27L from wild type)) was added to the co-culture.
The protocol for evaluation of the cytokine IL-2 was performed using a the BD OptEAI kit, human IL-2 ELISA set from BD Biosciences (San Diego, Calif.) following the manufacturer's recommendations. The absorbance 450 nm was read in a BioRad 3550 plate reader. A standard curve using known concentrations of IL-2 (from 500 to 8 pg/ml) was included in each ELISA plate. IL-2 levels for experimental samples (pg/ml) were calculated from the standard curve.
100 μl of 5×10^5 tumor cells/ml were mixed with 50 μl of T cells (at 5×10^5 cells/ml) in a 96-well V-bottom plate and incubated overnight (16-24 hours). Plates were centrifuged to pellet the cells and 120 μl of supernatant fluid was removed from each well for cytokine assay. To assess antigen-specific T cell responses, 3.33 μg/ml Melan-A/MART-1 peptide was added to the co-culture.
The protocols for evaluation of either IL-2 or IFN-gamma were similar, following the manufacturer's recommendations. A standard curve using known concentrations of each cytokine was included in each ELISA experiment. ELISA plates were coated with capture antibody and then washed with 1×PBS 0.5% Tween-20. Wells were blocked with 1×PBS 1% FBS for 1 hour and rewashed.

[2] = system: MU89 melanoma cell line; experiment: Antibody staining and flow cytometry (intracellular Melan-A/MART-1, gp100, TRP-2; surface MHC Class I/II); details: MU89 cells
Description: (§1) Cells were fixed with 1% formaldehyde, permeabilized with 0.1% saponin, stained with monoclonal antibodies to melanocyte antigens. Antibodies were obtained with specificity for: MART-1 from Vector Labs (Burlingame, Calif.); gp100 HMB45 from DakoCytomation (Carpinteria, Calif.) and then visualized with goat anti-mouse FITC-conjugated secondary antibody from Invitrogen (Fredrick, Md.). The level of EGFP was determined by flow cytometry of unfixed cells that were washed and resuspended in 1×PBS.
(§2) Cells were plated at a density of 1×10^5 in 1 ml of medium in a 24-well plate and cultured for varying times as indicated in results. […] After incubation, cells were collected by trypsinization and then evaluated by flow cytometry.
(§3) Intracellular staining and flow cytometric analyses of cytoplasmic Melan-A/MART-1, and gp100 expression were performed as described previously. Cells were fixed with 1% formaldehyde, permeabilized with 0.1% saponin, stained with monoclonal antibodies to melanocyte antigens. Antibodies were obtained with specificity for: Melan-A/MART-1 from Vector Labs (Burlingame, Calif.); gp100/HMB45 from DakoCytomation (Carpinteria, Calif.) and then visualized with goat anti-mouse FITC-conjugated secondary antibody from Invitrogen (Frederick, Md.). The level of EGFP was determined by flow cytometry of unfixed cells washed and resuspended in 1×PBS. Surface staining of MHC Class I was carried out using the antibody W6/32 on cells harvested with Cell Stripper from MediaTech Inc. (Manassas, Va.) and carried out on ice.
(§4) Cell were seeded at 1×10^6 cells in a T25 flask with 10 ml of media for the 4 day IFN-beta pre-treatments. Cells were then harvested and plated in 24 well plate at 1×10^5 cells per well in 1 ml of media for 3 day treatments.
(§5) For surface staining of HLA Class I and II antigens, cells were harvested using CellStripper™ from Mediatech (Manassas, Va.). All staining steps were performed on ice. Following a first incubation with antibody to Class I (W6/32) or Class II (L243) for 30 minutes. Stained cells were washed twice with cold PBS and then stained with a goat anti-mouse FITC secondary antibody to allow for quantitative analysis by flow cytometry. For evaluation of cytoplasmic antigens, including Melan-A/MART-1 and gp100, cells were first fixed in paraformaldehyde and permeabilized with saponin as previously described. Staining for cytoplasmic antigens was carried out at room temperature (22° C.).

[3] = system: MCF-7 breast cancer cells; experiment: Surface antibody staining and flow cytometry (MHC Class I/II); details: MCF-7 cells; Table 20; single agent or simultaneous combination
Description: as §3, §4, §5

[4] = system: U2-OS osteosarcoma cells; experiment: as above; details: U2-OS cells; Table 20; single agent or simultaneous combination
Description: as §3, §4, §5

[5] = system: HeLa cervical carcinoma cells; experiment: as above; details: HeLa cells
Description: as §3, §4, §5

[6] = system: U-118 MG glioma cell line; experiment: Antibody staining and flow cytometry (intracellular gp100; surface MHC Class I/II); details: U118 cells; Table 20; single agent or simultaneous combination
Description: as §1, §2, §3, §4, §5

[7] = Table 20, single agent or simultaneous combination
[8] = Table 21, no pre-treatment, treatment as labelled
[9] = Table 21, pre-treatment PU-H71 (3 days), then treatment as labelled
[10] = Table 21, substance given as pre-treatment (3 days) only, no subsequent treatment

## COc1c(C=O)c(O)cc2c1C(=O)c1ccccc1C2=O [Damnacanthal]
[1]
  Fold increase (IL-2 relative to untreated controls), hits from pilot screen: 2.1 fold

## O=C1CN(/N=C/c2ccc(-c3ccc([N+](=O)[O-])cc3)o2)C(O)=N1 [Dantrolene]
[1]
  Fold increase (IL-2 relative to untreated controls), hits from pilot screen: 2.4 fold

## Fc1ccc(C(c2ccc(F)cc2)N2CCN(C/C=C/c3ccccc3)CC2)cc1 [Flunarizine]
[1]
  Fold increase (IL-2 relative to untreated controls), hits from pilot screen: 11.9 fold

## COc1ccc(Cl)cc1C(=O)NCCc1ccc(S(=O)(=O)NC(=O)NC2CCCCC2)cc1 [Glyburide]
[1]
  Fold increase (IL-2 relative to untreated controls), hits from pilot screen: 2.6 fold

## CCCCCCCCCCCCCCCCCCc1ccc(C(=O)C=CC(=O)O)cc1 [OBAA, 3-(4-octadecyl)benzoylacrylic acid]
[1]
  Fold increase (IL-2 relative to untreated controls), hits from pilot screen: 5.9 fold

## COc1cccc(-c2cc(=O)c3ccccc3o2)c1N [PD98059]
[1]
  Outcome in the primary co-culture IL-2 screen (hit or not): failed to be identified

## N#CC(=C(/N)Sc1ccccc1N)/C(C#N)=C(\N)Sc1ccccc1N [U0126]
[1]
  Outcome in the primary co-culture IL-2 screen (hit or not): failed to be identified

## CC[C@@]1(O)C(=O)OCc2c1cc1n(c2=O)Cc2cc3ccccc3nc2-1 [camptothecin]
[1]
  Outcome in the primary co-culture IL-2 screen (hit or not): failed to be identified

## COc1cccc2c1C(=O)c1c(O)c3c(c(O)c1C2=O)C[C@@](O)(C(C)=O)C[C@@H]3O[C@H]1C[C@H](N)[C@H](O)[C@H](C)O1 [daunorubicin]
[1]
  Outcome in the primary co-culture IL-2 screen (hit or not): interferes with the direct co-culture assay

## COc1cccc2c1C(=O)c1c(O)c3c(c(O)c1C2=O)C[C@@](O)(C(=O)CO)C[C@@H]3O[C@H]1C[C@H](N)[C@H](O)[C@H](C)O1 [doxorubicin]
[1]
  Outcome in the primary co-culture IL-2 screen (hit or not): failed to be identified

## COc1cc([C@@H]2c3cc4c(cc3[C@@H](O[C@@H]3O[C@@H]5CO[C@@H](C)O[C@H]5[C@H](O)[C@H]3O)[C@H]3COC(=O)[C@H]23)OCO4)cc(OC)c1O [etoposide]
[1]
  Outcome in the primary co-culture IL-2 screen (hit or not): failed to be identified

## IFN-G
[2]; [7]
  L243 (MHC Class II surface staining): 64.3
  W6/32 (MHC Class I surface staining): 86.7
[2]; [8]
  L243 (MHC Class II surface staining): 81
[2]; [9]
  L243 (MHC Class II surface staining): 90
[2]; [10]
  L243 (MHC Class II surface staining): 64
[3]
  L243 (MHC Class II surface staining): 59.1
  W6/32 (MHC Class I surface staining): 478.5
[4]
  L243 (MHC Class II surface staining): 142.8
  W6/32 (MHC Class I surface staining): 397.1
[5]; [7]
  L243 (MHC Class II surface staining): 86.0
  W6/32 (MHC Class I surface staining): 464.8
[5]; [8]
  L243 (MHC Class II surface staining): 97
[5]; [9]
  L243 (MHC Class II surface staining): 33
[5]; [10]
  L243 (MHC Class II surface staining): 76
[6]
  L243 (MHC Class II surface staining): 53.6
  W6/32 (MHC Class I surface staining): 232.8
